What all share (assay type): in vivo
Assay [1] concerns Blumeria graminis on wheat. Put plainly: Greenhouse trial, 4 day curative, Blumeria graminis on wheat. To be noted: compound alone. The protocol:
The trials are carried out under greenhouse (Examples 1 to 18) or field conditions (Example 19) in residual or curative applications. The fungicides are applied in single treatments, or in a combination comprising a benzophenone of formula I and a compound selected from (A) through (E) as defined above. The compounds are applied in form of an aqueous spray mix obtained from a concentrated formulation or the technical material. […] Seed is planted in 6 cm diameter plastic pots and maintained in the greenhouse. […] When the primary leaf is fully expanded (in the case of cereals) or several leaves are present (in the case of dicots), formulated test compounds are sprayed with a three nozzle overhead fungicide sprayer to near run-off. Alternatively, a single nozzle overhead track sprayer is used for application of the compounds to cereals at a rate of 200 liters/ha (l/ha). Plants are then allowed to air-dry. […] Inoculation precedes treatment in the case of curative evaluations and follows treatment in case of residual evaluations. For inoculation of powdery mildew disease, plants are set up on greenhouse benches with bottom watering mats and inoculated by dusting them with conidia from infected plants. Between inoculation and treatment for curative evaluations and between treatment and inoculation for residual evaluations, plants are maintained in the greenhouse with bottom watering. For inoculation of non-powdery mildew diseases, an aqueous spore suspension of the pathogen is applied to the plant and the plants are kept 1-2 days in a moist infection chamber before being returned to the greenhouse where they are maintained by bottom watering. […] Disease on the foliage as percent leaf area with disease symptoms/signs is evaluated about 7 days after inoculation. In the case of wheat, the tips and bases of the leaves are excluded from the evaluation. [formula] […] Compounds are dissolved in acetone prior to addition of the water; the Tween 20 can be added through either the acetone or the water. Dilutions are made using the solvent/surfactant system. Formulated compounds are prepared using deionized water. Assessments of the diseases took place at the indicated day after the application of the compounds. Per cent infected leaf area infected was evaluated. […] Synergy of a fungicide mixture was determined by comparing the actual (observed) fungicidal activity of the mixture to the expected fungicidal activity of the mixture as calculated using the COLBY formula given hereinabove.

For assay [2], the system named is Pyrenophora teres on barley. In words: Greenhouse trial, 4 day residual, Pyrenophora teres on barley. To be noted: Table XVI (Example 16), 4 day residual; for pest or weed control at 0.4 ppm / pest or weed control at 2 ppm / pest or weed control at 10 ppm / pest or weed control at 50 ppm: Pyrenophora teres, 96 h, read-out: Observed Efficacy. The text has this: (§1) The fungicides are applied in single treatments, or in a combination comprising a benzophenone of formula I and a compound selected from (A) through (E) as defined above. The compounds are applied in form of an aqueous spray mix obtained from a concentrated formulation or the technical material.
(§2) 1. Seed is planted in 6 cm diameter plastic pots and maintained in the greenhouse.
(§3) 2. When the primary leaf is fully expanded (in the case of cereals) or several leaves are present (in the case of dicots), formulated test compounds are sprayed with a three nozzle overhead fungicide sprayer to near run-off. Alternatively, a single nozzle overhead track sprayer is used for application of the compounds to cereals at a rate of 200 liters/ha (l/ha). Plants are then allowed to air-dry.
(§4) 3. Inoculation precedes treatment in the case of curative evaluations and follows treatment in case of residual evaluations. For inoculation of powdery mildew disease, plants are set up on greenhouse benches with bottom watering mats and inoculated by dusting them with conidia from infected plants. Between inoculation and treatment for curative evaluations and between treatment and inoculation for residual evaluations, plants are maintained in the greenhouse with bottom watering. For inoculation of non-powdery mildew diseases, an aqueous spore suspension of the pathogen is applied to the plant and the plants are kept 1-2 days in a moist infection chamber before being returned to the greenhouse where they are maintained by bottom watering.
(§5) 4. Disease on the foliage as percent leaf area with disease symptoms/signs is evaluated about 7 days after inoculation. In the case of wheat, the tips and bases of the leaves are excluded from the evaluation. [formula]
(§6) 1. Technical compounds are formulated in a solvent/surfactant system consisting of 5% acetone and 0.05% Tween 20 in deionized water. Compounds are dissolved in acetone prior to addition of the water; the Tween 20 can be added through either the acetone or the water. Dilutions are made using the solvent/surfactant system. Formulated compounds are prepared using deionized water.
(§7) Assessments of the diseases took place at the indicated day after the application of the compounds. Per cent infected leaf area infected was evaluated. The efficacy of the compounds/compounds mixtures to control the diseases was calculated by using the formula given above under item 4: […]
(§8) Synergy of a fungicide mixture was determined by comparing the actual (observed) fungicidal activity of the mixture to the expected fungicidal activity of the mixture as calculated using the COLBY formula given hereinabove.
Fungicidal Efficacy of the Mixture of BP-4+Other Fungicides (4 Day Residual) Against Pyrenophora teres on Barley

Assay [3] has as its system Puccinia recondita on wheat. Put plainly: Greenhouse trial, 4 day residual, Puccinia recondita on wheat. To be noted: Table XV (Example 15), 4 day residual; for pest or weed control at 2 ppm / pest or weed control at 10 ppm / pest or weed control at 50 ppm / pest or weed control at 0.4 ppm: Puccinia recondita, 96 h, read-out: Observed Efficacy.
Excerpt: as §1, §2, §3, §4, §5, §6, §7, §8
Fungicidal Efficacy of the Mixture of BP-4+Other Fungicides (4 Day Residual) Against Puccinia recondita on Wheat
Fungicidal Efficacy of the Mixture of BP-4+Myclobutanil (4 Day Residual) Against Puccinia recondita on Wheat

Assay [4] concerns Erysiphe cichoracearum on cucumbers. Put plainly: Greenhouse trial, 4 day residual, Erysiphe cichoracearum on cucumbers. To be noted: Table XIV (Example 14), 4 day residual; for pest or weed control at 0.4 ppm / pest or weed control at 2 ppm / pest or weed control at 10 ppm / pest or weed control at 50 ppm: Golovinomyces cichoracearum, 96 h, read-out: Observed Efficacy.
Excerpt: as §1, §2, §3, §4, §5, §6, §7, §8

Assay [5] has as its system Blumeria graminis f. sp. tritici on wheat. Put plainly: Greenhouse trial, 2 day curative, Blumeria graminis f. sp. tritici on wheat. To be noted: Table XVII, compound alone. Here is the method: The trials are carried out under greenhouse (Examples 1 to 18) or field conditions (Example 19) in residual or curative applications. The fungicides are applied in single treatments, or in a combination comprising a benzophenone of formula I and a compound selected from (A) through (E) as defined above. The compounds are applied in form of an aqueous spray mix obtained from a concentrated formulation or the technical material.
as §2, §3, §4, §5, §6, §7, §8
Fungicidal Efficacy of the Mixture of Different Benzophenones+Metconazole (2 Day Curative) Against Blumeria graminis f. sp. tritici on Wheat
The tank mixes were obtained from technical material of the benzophenones BP-2 and BP-4 and metconazole.

Regarding `Fc1cccc(Cl)c1-c1c(Cl)nc2ncnn2c1NC1CC1` [AP-1, 5-chloro-6-(2-chloro-6-fluorophenyl)-7-(cyclopropylamino)-[1,2,4]triazolo[1,5-a]pyrimidine], the “Observed Efficacy” value was 0% in assay [1] (Table I, dose rate 25 ppm) and 0% in assay [1] (Table I, dose rate 125 ppm).

For the compound Dinocap [listing 1 of 2 here], the “Observed Efficacy” value came out at 0 in assay [2] (dose rate 0.4 ppm); 0 in assay [2] (dose rate 2 ppm); 5 in assay [2] (dose rate 10 ppm); 4 in assay [3] (dose rate 0.4 ppm); 13 in assay [3] (dose rate 2 ppm); 23 in assay [3] (dose rate 10 ppm). Besides, the “Observed Efficacy” value in assay [4] (dose rate 0.4 ppm) and in assay [4] (dose rate 2 ppm) was 0 throughout.

With `CCCN(CC)CC1COC2(CCC(C(C)(C)C)CC2)O1` (stereo not shown) [Spiroxamine], the pest or weed control at 0.4 ppm in assay [2] (dose rate 0.4 ppm) and in assay [4] (dose rate 0.4 ppm) was 0% in each case. Moreover, the results for the pest or weed control at 2 ppm in assay [2] (dose rate 2 ppm), in assay [3] (dose rate 2 ppm) and in assay [4] (dose rate 2 ppm) were 3%, 0% and 0%, respectively. Further, the pest or weed control at 10 ppm in assay [2] (dose rate 10 ppm) came out at 5%; in assay [3] (dose rate 10 ppm) it was 4%; in assay [4] (dose rate 10 ppm) it was 2%. The pest or weed control at 50 ppm in assay [2] (dose rate 50 ppm) was determined as 16%; in assay [3] (dose rate 50 ppm), 17%.

As to `COc1cc(C)c(C(=O)c2c(Cl)cccc2Cl)c(OCc2ccccc2F)c1OC` [BP-2, 2,6-dichloro-4′,5′-dimethoxy-6′-(2-fluorobenzyloxy)-2′-methylbenzophenone], the “Observed Efficacy” value in assay [5] (dose rate 0.67 ppm) was found to be 4%; in assay [5] (dose rate 2 ppm) it was 13%; in assay [5] (dose rate 6 ppm) it was 18%; in assay [5] (dose rate 18 ppm), 25%; in assay [5] (dose rate 54 ppm) it was 67%.

Regarding Flusilazole [listing 1 of 2 here], the “Observed Efficacy” value in assay [2] (dose rate 50 ppm) was 48; in assay [3] (dose rate 50 ppm) it was 100; in assay [4] (dose rate 50 ppm) it was 38.

For the compound `CC(Cc1ccc(C(C)(C)C)cc1)CN1C[C@@H](C)O[C@@H](C)C1` (stereo partly shown) [Fenpropimorph], the pest or weed control at 0.4 ppm in assay [2] (dose rate 0.4 ppm) came to 0%; in assay [3] (dose rate 0.4 ppm), 2%; in assay [4] (dose rate 0.4 ppm), 0%. In addition, the pest or weed control at 2 ppm in assay [2] (dose rate 2 ppm) amounted to 0%; in assay [3] (dose rate 2 ppm), 15%; in assay [4] (dose rate 2 ppm) it was 0%. The pest or weed control at 10 ppm in assay [2] (dose rate 10 ppm) turned out to be 3%; in assay [4] (dose rate 10 ppm), 7%. For the same compound, in assay [3] (dose rate 50 ppm), the pest or weed control at 50 ppm worked out at 60%.

Take Flusilazole [listing 2 of 2 here]: the “Observed Efficacy” value is recorded as 8 in assay [2] (dose rate 2 ppm); 26 in assay [2] (dose rate 10 ppm); 5 in assay [3] (dose rate 0.4 ppm); 28 in assay [3] (dose rate 2 ppm); 0 in assay [4] (dose rate 0.4 ppm); 0 in assay [4] (dose rate 2 ppm). The “Observed Efficacy” value in assay [4] (dose rate 10 ppm) stood at 19.

For Dinocap [listing 2 of 2 here], the “Observed Efficacy” value in assay [2] (dose rate 50 ppm) is recorded as 22; in assay [3] (dose rate 50 ppm), 54; in assay [4] (dose rate 10 ppm), 0.

Regarding `CC(C1CC1)C(O)(Cn1cncn1)c1ccc(Cl)cc1` (stereo not shown) [Cyproconazole], the pest or weed control at 2 ppm in assay [2] (dose rate 2 ppm) stood at 4%; in assay [3] (dose rate 2 ppm), 99%. The pest or weed control at 10 ppm in assay [2] (dose rate 10 ppm) is 1%; in assay [4] (dose rate 10 ppm), 68%. Further, the pest or weed control at 0.4 ppm turned out to be 88% in assay [3] (dose rate 0.4 ppm) and 19% in assay [4] (dose rate 0.4 ppm).

`CON=C(Cc1cccnc1)c1ccc(Cl)cc1Cl` [Pyrifenox]: the pest or weed control at 0.4 ppm in assay [2] (dose rate 0.4 ppm), in assay [3] (dose rate 0.4 ppm) and in assay [4] (dose rate 0.4 ppm) was 0% each time. The pest or weed control at 2 ppm in assay [2] (dose rate 2 ppm), in assay [3] (dose rate 2 ppm) and in assay [4] (dose rate 2 ppm) was 0% in each case. Besides, the pest or weed control at 50 ppm in assay [2] (dose rate 50 ppm) turned out to be 15%; in assay [3] (dose rate 50 ppm), 6%; in assay [4] (dose rate 50 ppm), 20%. Also, the pest or weed control at 10 ppm in assay [3] (dose rate 10 ppm) and in assay [4] (dose rate 10 ppm) was 1% each time.

For `CC1CCN(c2c(-c3c(F)cccc3Cl)c(Cl)nc3ncnn23)CC1` [AP-2, 5-chloro-6-(2-chloro-6-fluorophenyl)-7-(4-methylpiperid-1-yl)-[1,2,4]triazolo[1,5-a]pyrimidine], the “Observed Efficacy” value amounted to 0% in assay [1] (Table II, dose rate 25 ppm) and 8% in assay [1] (Table II, dose rate 125 ppm).

Regarding `OC(c1ccc(Cl)cc1)(c1cncnc1)c1ccccc1Cl` (stereo not shown) [Fenarimol], the pest or weed control at 2 ppm in assay [2] (dose rate 2 ppm) turned out to be 0%; in assay [3] (dose rate 2 ppm), 9%; in assay [4] (dose rate 2 ppm), 34%. The pest or weed control at 10 ppm was 4% in assay [2] (dose rate 10 ppm), 23% in assay [3] (dose rate 10 ppm) and 42% in assay [4] (dose rate 10 ppm). For the same compound, the pest or weed control at 0.4 ppm is 0% in assay [3] (dose rate 0.4 ppm) and 5% in assay [4] (dose rate 0.4 ppm). Moreover, the pest or weed control at 50 ppm came out at 90% in assay [3] (dose rate 50 ppm) and 67% in assay [4] (dose rate 50 ppm).

These data come from patent publication US6346535B1, “Fungicidal mixtures” (American Cyanamid Company, priority 1999, dated 2002).
